Experimental data reported in patent publication EP0527720B1, “THERAPEUTIC AGENTS” (The Boots Company PLC, priority 1989, dated 1990).

System: heart failure patients
Experiment: Earlier clinical studies of flosequinan 150 mg alone in heart failure patients
Assay type: in vivo, human
Conditions: heart failure patients receiving 150 mg doses of flosequinan
Source text: An increase of heart rate is generally an undesirable effect in the treatment of heart failure since additional stress is placed on the failing heart. Furthermore, patients receiving such therapy may report adverse drug events associated with the increase in heart rate such as tachycardia and palpitations. These undesirable side effects of vasodilatory drug therapy effectively limit the maximum dose of the drug which can be safely administered.
This was particularly remarkable since no increase in heart rate (HR) was apparent. This implies that the increase in cardiac output (CO) evident after coadministration of captopril and flosequinan is due to an increase in stroke volume and not due, at least in part, to an increase in heart rate (HR) as expected.

SMILES: Cn1cc([S+](C)[O-])c(=O)c2ccc(F)cc21 (stereo not shown) [flosequinan, 7-fluoro-1-methyl-3-methylsulphinyl-4-quinolone]
- heart rate: an increase of heart rate occurs
